# Columns and labels:
# [1] = test system: SW1710 (Bladder Carcinoma); experiment: Bliss excess, mean over the matrix (fraction); higher = more synergy
# How it was run: (§1)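 Cell lines grown in DMEM/F12 or RPMI with 10% FBS were plated in 1536-well plates and held 24 hours at 37°C, 5% CO2 before 72 hours of exposure to two-drug dose matrices, with DMSO typically at 0.2%. CellTiter-Glo 2.0 luminescence gave viability, which was converted to inhibition. Vehicle wells were set to 0 and blank wells to 1. Combination Emax is the second-highest inhibition in the matrix, and Bliss excess is the observed combination effect minus the expected EA + EB − EA·EB, where EA and EB are the single-agent effects.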
# [2] = test system: LNZTA3WT4 (Low Grade Glioma); experiment: as above
# How it was run: as §1
# [3] = test system: WSU-NHL (B-Cell Non-Hodgkin's Lymphoma); experiment: as above
# How it was run: as §1
# [4] = test system: TGBC1TKB (Biliary Tract Carcinoma); experiment: as above
# How it was run: as §1
# [5] = test system: MPP-89 (Mesothelioma); experiment: as above
# How it was run: as §1
# [6] = test system: HH (T-Cell Non-Hodgkin's Lymphoma); experiment: as above
# How it was run: as §1
# [7] = test system: HuCCT1 (Biliary Tract Carcinoma); experiment: as above
# How it was run: as §1
# [8] = test system: CAL-72 (Osteosarcoma); experiment: as above
# How it was run: as §1
# [9] = test system: BE-13 (T-Lymphoblastic Leukemia); experiment: as above
# How it was run: as §1
# [10] = test system: SNU-449 (Hepatocellular Carcinoma); experiment: as above
# How it was run: as §1
# [11] = test system: ESS-1 (Other Solid Carcinomas); experiment: as above
# How it was run: as §1
# [12] = test system: KYAE-1 (Esophageal Adenocarcinoma); experiment: as above
# How it was run: as §1
# [13] = test system: LOXIMVI (Melanoma); experiment: as above
# How it was run: as §1
# [14] = test system: GAMG (Glioblastoma); experiment: as above
# How it was run: as §1
# [15] = test system: A673 (Ewing's Sarcoma); experiment: as above
# How it was run: as §1
# [16] = test system: EW-11 (Ewing's Sarcoma); experiment: as above
# How it was run: as §1
# [17] = test system: YAPC (Pancreatic Carcinoma); experiment: as above
# How it was run: as §1
# [18] = test system: KS-1 (Glioblastoma); experiment: as above
# How it was run: as §1
# [19] = test system: NCI-H524 (Small Cell Lung Carcinoma); experiment: as above
# How it was run: as §1
# [20] = test system: SAS (Oral Cavity Carcinoma); experiment: as above
# How it was run: as §1
# [21] = test system: OVCAR-5 (Ovarian Carcinoma); experiment: as above
# How it was run: as §1
# [22] = test system: SNU-16 (Gastric Carcinoma); experiment: as above
# How it was run: as §1
# [23] = test system: SW1710 (Bladder Carcinoma); experiment: combination Emax (second highest fraction inhibited in the dose matrix, 72 h); higher = more inhibition; extreme values may be limits of the assay
# How it was run: as §1
# [24] = test system: LNZTA3WT4 (Low Grade Glioma); experiment: as above
# How it was run: as §1
# [25] = test system: WSU-NHL (B-Cell Non-Hodgkin's Lymphoma); experiment: as above
# How it was run: as §1
# [26] = test system: TGBC1TKB (Biliary Tract Carcinoma); experiment: as above
# How it was run: as §1
# [27] = test system: MPP-89 (Mesothelioma); experiment: as above
# How it was run: as §1
# [28] = test system: HH (T-Cell Non-Hodgkin's Lymphoma); experiment: as above
# How it was run: as §1
# [29] = test system: HuCCT1 (Biliary Tract Carcinoma); experiment: as above
# How it was run: as §1
# [30] = test system: BE-13 (T-Lymphoblastic Leukemia); experiment: as above
# How it was run: as §1
# [31] = test system: SNU-449 (Hepatocellular Carcinoma); experiment: as above
# How it was run: as §1
# [32] = test system: ESS-1 (Other Solid Carcinomas); experiment: as above
# How it was run: as §1
# [33] = test system: KYAE-1 (Esophageal Adenocarcinoma); experiment: as above
# How it was run: as §1
# [34] = test system: LOXIMVI (Melanoma); experiment: as above
# How it was run: as §1
# [35] = test system: GAMG (Glioblastoma); experiment: as above
# How it was run: as §1
# [36] = test system: A673 (Ewing's Sarcoma); experiment: as above
# How it was run: as §1
# [37] = test system: EW-11 (Ewing's Sarcoma); experiment: as above
# How it was run: as §1
# [38] = test system: YAPC (Pancreatic Carcinoma); experiment: as above
# How it was run: as §1
# [39] = test system: KS-1 (Glioblastoma); experiment: as above
# How it was run: as §1
# [40] = test system: NCI-H524 (Small Cell Lung Carcinoma); experiment: as above
# How it was run: as §1
# [41] = test system: SAS (Oral Cavity Carcinoma); experiment: as above
# How it was run: as §1
# [42] = test system: OVCAR-5 (Ovarian Carcinoma); experiment: as above
# How it was run: as §1
# [43] = test system: SNU-16 (Gastric Carcinoma); experiment: as above
# How it was run: as §1
# 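Throughout, for Bliss excess, mean over the matrix: after 72 h of two-drug dosing.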
smiles,measurement,setting,value
"CN(CCO)CC[C@H](CSc1ccccc1)Nc1ccc(S(=O)(=O)NC(=O)c2ccc(N3CCC([C@@H](O)c4ccccc4-c4ccc(Cl)cc4)CC3)cc2)cc1S(=O)(=O)C(F)(F)F [AZD4320] + CC(=O)O[C@H]1C(=O)[C@@]2(C)[C@H]([C@H](OC(=O)c3ccccc3)[C@]3(O)C[C@H](OC(=O)[C@H](O)[C@@H](NC(=O)c4ccccc4)c4ccccc4)C(C)=C1C3(C)C)[C@]1(OC(C)=O)CO[C@@H]1C[C@@H]2O [Paclitaxel] (first compound max 1 µM, 7x7, partner max 3 µM)",Bliss excess,[1],0.141
same,Bliss excess,[2],0.0016
same,Bliss excess,[3],0.0294
same,Bliss excess,[4],0.118
same,Bliss excess,[5],0.108
same,Bliss excess,[6],0.254
same,Bliss excess,[7],0.0276
same,Bliss excess,[8],0.19
same,Bliss excess,[9],0.0037
same,Bliss excess,[10],-0.0162
same,Bliss excess,[11],0.0663
same,Bliss excess,[12],0.0811
same,Bliss excess,[13],0.0164
same,Bliss excess,[14],0.095
same,Bliss excess,[15],0.0654
same,Bliss excess,[16],0.0303
same,Bliss excess,[17],-0.0321
same,Bliss excess,[18],0.217
same,Bliss excess,[19],0.0333
same,Bliss excess,[20],0.0322
same,Bliss excess,[21],0.0576
same,Bliss excess,[22],0.0287
same,combination Emax,[23],0.98
same,combination Emax,[24],0.967
same,combination Emax,[25],1
same,combination Emax,[26],0.894
same,combination Emax,[27],0.983
same,combination Emax,[28],0.837
same,combination Emax,[29],0.671
same,combination Emax,[30],1
same,combination Emax,[31],0.414
same,combination Emax,[32],1
same,combination Emax,[33],0.587
same,combination Emax,[34],0.955
same,combination Emax,[35],1
same,combination Emax,[36],1
same,combination Emax,[37],0.927
same,combination Emax,[38],0.395
same,combination Emax,[39],0.937
same,combination Emax,[40],1
same,combination Emax,[41],0.971
same,combination Emax,[42],0.973
same,combination Emax,[43],1
